Experimental data from PubChem BioAssay (NCI).
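Protocol summary: plate cells (96-well), add compound at 5 concentrations, incubate 48 h, interpolate endpoints linearly. The concentration for 50% growth inhibition is given as GI50. The concentration for full growth arrest is given as TGI.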

Key:
Assay in all cases: NCI-60 cell line screen, 48 h; in the data active = GI50 below about 0.43 µM; inactive = the rest
COLO 205 colon = tested on: COLO 205 colon
A549 NSCLC = tested on: A549 NSCLC
HOP-62 NSCLC = tested on: HOP-62 NSCLC
SK-MEL-2 melanoma = tested on: SK-MEL-2 melanoma
UO-31 renal = tested on: UO-31 renal
CCRF-CEM leukemia = tested on: CCRF-CEM leukemia
PC-3 prostate = tested on: PC-3 prostate
MDA-MB-231 breast = tested on: MDA-MB-231 breast
SNB-19 CNS = tested on: SNB-19 CNS
DU-145 prostate = tested on: DU-145 prostate
SK-MEL-5 melanoma = tested on: SK-MEL-5 melanoma
IGROV1 ovarian = tested on: IGROV1 ovarian
MOLT-4 leukemia = tested on: MOLT-4 leukemia
SF-268 CNS = tested on: SF-268 CNS
SR leukemia = tested on: SR leukemia
LOX IMVI melanoma = tested on: LOX IMVI melanoma
SW-620 colon = tested on: SW-620 colon
MDA-MB-435 = tested on: MDA-MB-435
OVCAR-5 ovarian = tested on: OVCAR-5 ovarian
SK-MEL-28 melanoma = tested on: SK-MEL-28 melanoma
NCI-H460 lung = tested on: NCI-H460 lung
786-0 renal = tested on: 786-0 renal
NCI-H23 lung = tested on: NCI-H23 lung
OVCAR-8 ovarian = tested on: OVCAR-8 ovarian
HL-60(TB) leukemia = tested on: HL-60(TB) leukemia
RPMI-8226 leukemia = tested on: RPMI-8226 leukemia
U251 CNS = tested on: U251 CNS
NCI-H226 lung = tested on: NCI-H226 lung
HCT-116 colon = tested on: HCT-116 colon
OVCAR-4 ovarian = tested on: OVCAR-4 ovarian
SK-OV-3 ovarian = tested on: SK-OV-3 ovarian
SNB-75 CNS = tested on: SNB-75 CNS
HOP-92 NSCLC = tested on: HOP-92 NSCLC
KM12 colon = tested on: KM12 colon
HCC-2998 colon = tested on: HCC-2998 colon
HCT-15 colon = tested on: HCT-15 colon
K-562 leukemia = tested on: K-562 leukemia
SF-539 CNS = tested on: SF-539 CNS
HS 578T breast = tested on: HS 578T breast
T-47D breast = tested on: T-47D breast
M14 melanoma = tested on: M14 melanoma
RXF 393 renal = tested on: RXF 393 renal
NCI-H522 lung = tested on: NCI-H522 lung
TK-10 renal = tested on: TK-10 renal
BT-549 breast = tested on: BT-549 breast
UACC-62 melanoma = tested on: UACC-62 melanoma
NCI/ADR-RES ovarian = tested on: NCI/ADR-RES ovarian
HT29 colon = tested on: HT29 colon
CAKI-1 renal = tested on: CAKI-1 renal
MCF7 breast = tested on: MCF7 breast
ACHN renal = tested on: ACHN renal
UACC-257 melanoma = tested on: UACC-257 melanoma
SN12C renal = tested on: SN12C renal
SF-295 CNS = tested on: SF-295 CNS
OVCAR-3 ovarian = tested on: OVCAR-3 ovarian

CC(C)N(CCCNC(=O)Nc1ccc(C(C)(C)C)cc1)C[C@H]1O[C@@H](n2ccc3c(N)ncnc32)[C@H](O)[C@@H]1O
inactive: GI50 (COLO 205 colon) > 100 µM | GI50 (A549 NSCLC) > 100 µM | GI50 (HOP-62 NSCLC) > 100 µM | GI50 (SK-MEL-2 melanoma) > 100 µM | GI50 (UO-31 renal) > 100 µM | GI50 (CCRF-CEM leukemia) > 100 µM | GI50 (PC-3 prostate) > 100 µM | GI50 (MDA-MB-231 breast) > 100 µM | GI50 (SNB-19 CNS) > 100 µM | GI50 (DU-145 prostate) > 100 µM | GI50 (SK-MEL-5 melanoma) > 100 µM | GI50 (IGROV1 ovarian) > 100 µM | GI50 (MOLT-4 leukemia) > 100 µM | GI50 (SF-268 CNS) > 100 µM | GI50 (SR leukemia) > 100 µM | GI50 (LOX IMVI melanoma) > 100 µM | GI50 (SW-620 colon) > 100 µM | GI50 (MDA-MB-435) > 100 µM | GI50 (OVCAR-5 ovarian) > 100 µM | GI50 (SK-MEL-28 melanoma) > 100 µM | GI50 (NCI-H460 lung) > 100 µM | GI50 (786-0 renal) > 100 µM | GI50 (NCI-H23 lung) > 100 µM | GI50 (OVCAR-8 ovarian) > 100 µM | GI50 (HL-60(TB) leukemia) > 100 µM | GI50 (RPMI-8226 leukemia) > 100 µM | GI50 (U251 CNS) > 100 µM | GI50 (NCI-H226 lung) > 100 µM | GI50 (HCT-116 colon) > 100 µM | GI50 (OVCAR-4 ovarian) > 100 µM | GI50 (SK-OV-3 ovarian) > 100 µM | GI50 (SNB-75 CNS) 26.2 µM | GI50 (HOP-92 NSCLC) > 100 µM | GI50 (KM12 colon) > 100 µM | GI50 (HCC-2998 colon) > 100 µM | GI50 (HCT-15 colon) > 100 µM | GI50 (K-562 leukemia) > 100 µM | GI50 (SF-539 CNS) > 100 µM | GI50 (HS 578T breast) > 100 µM | GI50 (T-47D breast) > 100 µM | GI50 (M14 melanoma) > 100 µM | GI50 (RXF 393 renal) > 100 µM | GI50 (NCI-H522 lung) > 100 µM | GI50 (TK-10 renal) > 100 µM | GI50 (BT-549 breast) > 100 µM | GI50 (UACC-62 melanoma) > 100 µM | GI50 (NCI/ADR-RES ovarian) > 100 µM | GI50 (HT29 colon) > 100 µM | GI50 (CAKI-1 renal) > 100 µM | GI50 (MCF7 breast) > 100 µM | GI50 (ACHN renal) > 100 µM | GI50 (UACC-257 melanoma) > 100 µM | GI50 (SN12C renal) > 100 µM | GI50 (SF-295 CNS) > 100 µM | GI50 (OVCAR-3 ovarian) > 100 µM
> 100 µM: TGI (COLO 205 colon) | TGI (A549 NSCLC) | TGI (HOP-62 NSCLC) | TGI (SK-MEL-2 melanoma) | TGI (UO-31 renal) | TGI (CCRF-CEM leukemia) | TGI (PC-3 prostate) | TGI (MDA-MB-231 breast) | TGI (SNB-19 CNS) | TGI (DU-145 prostate) | TGI (SK-MEL-5 melanoma) | TGI (IGROV1 ovarian) | TGI (MOLT-4 leukemia) | TGI (SF-268 CNS) | TGI (SR leukemia) | TGI (LOX IMVI melanoma) | TGI (SW-620 colon) | TGI (MDA-MB-435) | TGI (OVCAR-5 ovarian) | TGI (SK-MEL-28 melanoma) | TGI (NCI-H460 lung) | TGI (786-0 renal) | TGI (NCI-H23 lung) | TGI (OVCAR-8 ovarian) | TGI (HL-60(TB) leukemia) | TGI (RPMI-8226 leukemia) | TGI (U251 CNS) | TGI (NCI-H226 lung) | TGI (HCT-116 colon) | TGI (OVCAR-4 ovarian) | TGI (SK-OV-3 ovarian) | TGI (SNB-75 CNS) | TGI (HOP-92 NSCLC) | TGI (KM12 colon) | TGI (HCC-2998 colon) | TGI (HCT-15 colon) | TGI (K-562 leukemia) | TGI (SF-539 CNS) | TGI (HS 578T breast) | TGI (T-47D breast) | TGI (M14 melanoma) | TGI (RXF 393 renal) | TGI (NCI-H522 lung) | TGI (TK-10 renal) | TGI (BT-549 breast) | TGI (UACC-62 melanoma) | TGI (NCI/ADR-RES ovarian) | TGI (HT29 colon) | TGI (CAKI-1 renal) | TGI (MCF7 breast) | TGI (ACHN renal) | TGI (UACC-257 melanoma) | TGI (SN12C renal) | TGI (SF-295 CNS) | TGI (OVCAR-3 ovarian)
